Consider two substances from patent US20090087870A1, “HEMATOLOGICAL ASSAY AND KIT” (DSM IP ASSETS B.V., priority 2002, published 2009).

Assay [1] has as its system thrombin formation in plasma samples from healthy volunteers and hemophilia A patients. The experiment in a line: onset of thrombin formation in the inventive assay compared with the aPTT (onset of clotting by fibrin formation). In kind it is biochemical. Particulars: 250 μmol/l substrate added to aPTT activation (aluminium silicate, phospholipids, CaCl2); 80 plasma samples; FIG. 11. From the text:
FIG. 11 compares the detection of the onset of coagulation by the Fibrin Formation method and by the inventive method. For this experiment 80 plasma samples from healthy volunteers and hemophilia A patients were clotted by the addition of a contact phase activator (aluminium silicate, Sigma, St. Louis, USA), phospholipids (rabbit brain cephalin, Pentapharm, Basle) and CaCl2 (Sigma, St. Louis, USA). This procedure is called “Activated Partial Thromboplastin time” (aPTT). The time from the start of the procedure till clotting is detected is the aPTT. The inventive assay was performed using the identical activation procedure as the aPTT. The difference between the two procedures was the addition of the fast chromogenic substrate • (H-D-CHG-Ala-Arg-pNa.2AcOH, 250 μmol/l, Pentapharm) and the fibrin polymerisation inhibitor H-Gly-Pro-Arg-Pro-OH AcOH (5 mg/ml, Pentapharm) in the inventive assay.

Assay [2] deals with thrombin (Homo sapiens, UniProt P00734). Particulars: thrombin substrate, substrate-thrombin reaction; cited from earlier work.

The Km is the concentration of substrate that gives half-maximal velocity. With H-D-CHG-Ala-Arg-pNa.2AcOH, the “effect on onset of thrombin formation” value in assay [1] is recorded as “delayed the onset of the thrombin formation”. The Km in assay [2] was 0.0159 mM.

As for H-β-Ala-Gly-Arg-pNA°2AcOH, the Michaelis constant (Km) in assay [2] was 2 mM.
